Experimental findings from patent US20080269161A1, “Compositions and Methods Relating to Mitochondrial Hyperpolarization in Neurological Disease” (priority 2005, published 2008) are described below.

Entries after “also recorded” stand apart in the source; their conditions may differ.

Experiment [1] relates to mitochondrial membrane potential of rat cortical neurons. The experiment is classed as cell-based. Particulars: neurotoxin alone. The protocol: Curve fits are non-formulaic software interpolations of the data points.
Changes in mitochondrial function that could be associated with the increased vesicular activity were evaluated. Mitochondria generate the energy for synaptic transmission in the form of ATP, and as a byproduct of this oxidative phosphorylation, they are also one of the primary producers of intracellular ROS. Two key mitochondrial parameters were examined in response to Tat and PAF: 1) mitochondrial membrane potential (ΔΨm) [as assessed by mitochondrial uptake of the lipophilic cationic dyes tetramethylrhodamine ethyl or methyl ester (TMRE or TMRM respectively)], and 2) ATP production (as measured by luciferase assay). The electronegative mitochondrial membrane potential provides the driving force for calcium buffering and ATP production by the mitochondria, and as such, ΔΨm is frequently used as an indicator of mitochondrial health and energetic capacity. Moreover, fluctuations in ΔΨm can trigger mitochondrial release of pro-apoptotic factors, an event most frequently associated with a loss of ΔΨm.
Monitoring alterations in ΔΨm with TMRM: In the relevant methods described herein, changes in mitochondrial membrane potential (ΔΨm) in response to Tat or PAF treatment is assessed by TMRM, which must equilibrate across the plasma membrane before entering the mitochondria; and in whole cell applications dye concentration in the mitochondria is dependent on both plasma membrane potential (ΔΨp) and AΨm. At sufficiently low dye concentrations (TMRM =1 nM, i.e. high cell/dye ratio) and normal membrane potentials, ≧95% of the dye is in the mitochondria, and ≦1% in the media, which results in an approximately 100× sensitivity of the dye to ΔΨm over ΔΨp, given equivalent changes in plasma or mitochondrial membrane potential [Rottenberg, H. and S. Wu, Biochim Biophys Acta, 1998. 1404(3): p. 393-40].
For these methods, primary rodent neurons are treated with reagent under normal culture conditions for the indicated time period, followed by removal of the media, 1×2 minute wash in pre-warmed 37° C. HBSS plus 10 mM glucose and 10 mM HEPES (HBSS+), then incubation in HBSS+ with 1 nM TMRE/M. Following equilibration of the dye for 20 minutes to ensure distribution across the mitochondrial membrane, the cells are imaged while remaining in the 1 nM TMRE/M solution, as is necessary for a continued dye equilibrium state. Random field images are taken using an Olympus IX-70 microscope and 40× objective (fluorescent excitation: 545; emission: 610) and Apogee KX32ME CCD camera, and the mean relative fluorescent unit (RFU) value of the neuronal soma and processes (excluding mitochondria deficient regions) is quantified using Scanalytics IPLab software.

The next experiment deals with hippocampal neurons. Description: Dendrite beading and spine loss in hippocampal neurons in vitro. The experiment is classed as cell-based, rat. Particulars: cPAF 130 nM, 60 hours. From the text: (A) cPAF causes dendrite beading and loss of dendritic spines. (A′) Low-magnification images show minimal changes in dendrite morphology and total spine number in control cultures (left). In cPAF-treated cultures (right), dendrite beading (red arrows) is accompanied by spine loss and sprouting of filopodia (green arrowheads) but gross aspects of dendrite structure are preserved. (B) No cells developed dendritic swellings in control cultures, while 55±3% of cPAF-exposed cells beaded. (C) 43±5% of dendritic spines were lost during cPAF exposure, while total spine number was maintained in control cultures.
An additional pathologic consequence of exposure to HIV-1 neurotoxins is an increase in oxidized cellular phospholipids that can bind to and activate the PAF-R [Marathe, G. K., et al., Vascul Pharmacol, 2002. 38(4): p. 193-200]. Both energetic stress and PAF-R signaling have the potential to impair post-synaptic neurotransmission. Thus, a morphologic correlate of dendrite damage in HAD was identified, which is activity-induced dendritic swelling or “beading” in the presence of the HIV neurotoxin cPAF. […]
(3) Primary rat hippocampal neurons (HN). […] Dissociated cells are counted by trypan blue viability assay and plated in cell culture plates at 0.5-0.6×10^5 cells/cm^2, on poly-D-lysine-coated cell culture plastic or sterile glass coverslips. […]

Regarding `CCCCCCCCCCCCCCCCOC[C@H](COP(=O)([O-])OCC[N+](C)(C)C)OC(=O)NC` [PAF, carbamyl-platelet-activating factor], the “effect on ΔΨm” value in experiment [1] was “dose dependent increases; also recorded: dose-dependent rise”. Also, in the experiment on hippocampal neurons, the “cells with dendrite beading” value was determined as 55±3% and the dendritic spines lost stood at 43±5%.
